{
  "source": "paper PMC9738107",
  "about": "“Targeting of the ELR+CXCL/CXCR1/2 Pathway Is a Relevant Strategy for the Treatment of Paediatric Medulloblastomas” (Cells, 2022)",
  "type_in_all_cases": "cell-based, human",
  "key": {"ONS-76 cells [1]": {"system": "ONS-76 cells", "experiment": "Spheroid invasion, 3D culture", "settings": "ONS-76, 1 µM, from day 7", "protocol": "(§1) Figure 4 C29 reduces proliferation, migration, and invasion of naïve MB cells. (A) Proliferation of Daoy, ONS-76, HD-MB03, and D341Med wild-type cells after treatment with 1 μM C29 or the control (DMSO), n = 3. (B) Clonogenic assay on Daoy (n = 4), ONS-76 (n = 3) and HD -MB03 (n = 5) cells after treatment with control (DMSO) or C29 (1 μM or 2.5 μM). Scale = 500 μm. (C) Cell migration through the Boyden chamber of Daoy and ONS-76 cells specifically attracted by 200 ng/mL CXCL8. Results are expressed as percentage of control (DMSO) (n = 3). Scale = 1000 μm. (D) Spheroid invasion using 3D culture cell assays on Daoy (n = 4) and ONS-76 cells (n = 3) treated with control (DMSO) or C29 at a concentration of 1 μM on day 0, 1, and 2. Results are expressed as percentage of day 0, n = 4. Scale = 500 μm. Statistics were performed using Student t-test for 2 comparisons only or ANOVA test for multiple comparisons. * p < 0.05, ** p < 0.01, *** p < 0.001. […]\n(§2) each month by using PlasmoTest Kit (#10L07‐MM, InvivoGen, Toulouse, France). Daoy and ONS‐76 belong to the Shh genetic subgroup, D341‐Med and HD‐MB03 to group 3. […]\n(§3) (1, 2∙5, 5μM) for 48 hours. […]\n(§4) 5000 cells were plated in 48 multi‐well plates coated with agarose 0∙8%. […] Images were recorded each day with the Evos XL Core Cell Imaging system (Thermo Fisher)."}, "Daoy cells [2]": {"system": "Daoy cells", "experiment": "Spheroid invasion, 3D culture", "settings": "1 µM, from day 2", "protocol": "as §1, §2, §3, §4"}, "HD-MB03 cells": {"system": "HD-MB03 cells", "experiment": "Pseudo-vessel formation on Matrigel", "settings": "HD-MB03, 1 µM", "protocol": "(§5) Figure 6 C29 inhibits the formation of pseudo vessel structures. (A) Formation of pseudo-vessels by Daoy cells, ONS-76, and HD-MB03 cultured on Matrigel and treated with Control (DMSO) or C29 (1 or 2.5 µM); n = 3. (B) Number of meshes (geometric units of the net formed by the cells on the matrigel surface) were counted with ImageJ. Statistics were performed using Student t-test for only 2 comparisons or ANOVA test for multiple comparisons. *** p < 0.001, scale = 500 μm. […]\n(§6) Pseudo‐vessels formation assays\n(§7) The cells were deprived of serum overnight. They were then seeded (75000 Daoy\n(§8) with Matrigel Matrix, hESC‐Qualified (VWR). Plates were then incubated at 37 °C, 5%\n(§9) CO2 for 24 hours. Representative images were taken with the Evos XL Core Cell Imaging\n(§10) System at low magnification (4X). For each image, we determined the number of meshes\n(§11) (number of geometric units of the net formed by the cells seeded on the matrigel surface). […]"}, "ONS-76 cells [3]": {"system": "ONS-76 cells", "experiment": "Pseudo-vessel formation on Matrigel", "protocol": "as §5, §6, §7, §8, §9, §10, §11"}, "Daoy cells [4]": {"system": "Daoy cells", "experiment": "Pseudo-vessel formation on Matrigel", "protocol": "as §5, §6, §7, §8, §9, §10, §11"}},
  "data": [
    {"smiles": "O=C(Nc1cccc(Cl)c1)Nc1nc2ccc([N+](=O)[O-])cc2s1", "note": "[C29, 1-(3-chlorophenyl)-3-(6-nitrobenzo[d]thiazol-2-yl) urea]", "values": [
      {"measurement": "Spheroid invasion ability", "setting": "ONS-76 cells [1]", "result": "affected the invasion ability"},
      {"measurement": "Spheroid invasion ability", "setting": "Daoy cells [2]", "result": "affected the invasion ability"},
      {"measurement": "Number of meshes (pseudo-vessels)", "setting": "HD-MB03 cells", "result": "significantly reduced the number of meshes"},
      {"measurement": "Pseudo-vasculature formation", "setting": "ONS-76 cells [3]; ONS-76, 1 µM", "result": "some vascular structures were retained"},
      {"measurement": "Pseudo-vasculature formation", "setting": "ONS-76 cells [3]; ONS-76, 2.5 µM", "result": "completely lost this ability"},
      {"measurement": "Pseudo-vasculature formation", "setting": "Daoy cells [4]; 1 µM", "result": "inhibited this ability"},
      {"measurement": "Pseudo-vasculature formation", "setting": "Daoy cells [4]; 2.5 µM", "result": "inhibited this ability"}
    ]}
  ]
}
